Experimental findings from PMC8769072, “Proteome‐scale mapping of binding sites in the unstructured regions of the human proteome” (Molecular Systems Biology, 2022) are described below.

For the test, the system named is immobilized GST-tagged bait protein domains. Kind of test: ProP-PD phage selections (HD2 P8, sublibraries, HD2 P3, HD1 P8) with NGS and confidence level. The conditions noted are these: for HD2_nucleus confidence: library HD2 P8 nucleus. The test is classed as binding, human.
Where [1] appears, read: library HD2, bait EPS15_EH__P42566_121_215, whether the validated benchmark motif instance was recovered in the ProP-PD selection (TRUE/FALSE).
Setting [2] is: bait MAP1LC3A_ATG8 (Q9H492 2-121), HD2 library, benchmark motif instance recovered in the ProP-PD selection (TRUE/FALSE).
The mark [3] stands for this setting: bait MAP1LC3B_ATG8 (Q9GZQ8 2-119), HD2 library, benchmark motif instance recovered in the ProP-PD selection (TRUE/FALSE).
[4] abbreviates: HD2 library, bait TNKS_TANK-peptide-bind__O95271_174_649, known motif instance of the benchmarking set found (TRUE) or not found (FALSE) among selected peptides.
Where [5] appears, read: bait KPNA4_Arm (O00629 68-487), HD2 library, benchmark motif instance recovered in the ProP-PD selection (TRUE/FALSE).
[6] abbreviates: bait WDR5_WD_1234567_P61964_21_334.
Setting [7] is: bait PABP-B_PABP__P11940_544_623, HD2 library, whether the validated benchmark motif instance was recovered in the ProP-PD selection (TRUE/FALSE).
Where [8] appears, read: library HD2, bait YAP1_WW_1_P46937_169_207, validated benchmark motif instance, in_library_check TRUE, TRUE/FALSE = instance recovered in ProP-PD selection.
[9] abbreviates: HD2 library, bait SUMO1_SUMO__P63165_1_101, known motif instance of the benchmarking set found (TRUE) or not found (FALSE) among selected peptides.
Where [10] appears, read: bait CALM1_EF-hand__P0DP23_2_149, library HD2, benchmarking set of validated motif instances, TRUE = motif instance recovered in the ProP-PD selection.

The substance FPTDERSWVYSPLHYS had an HD confidence (bait TLN1_PTB__Q9Y490_309_401, library HD) of 3. Where the note is “bait TLN1_PTB__Q9Y490_309_401, library HD2 P3”, this substance displayed a p3_HD2 confidence of 2. For the same substance, the p3_HD2 count proportions (bait TLN1_PTB__Q9Y490_309_401, library HD2 P3, mean normalised NGS counts) is on record as 0.001295. The substance also showed a p3_HD2 mean counts (bait TLN1_PTB__Q9Y490_309_401, library HD2 P3, mean raw NGS counts, all selections) of 12.2. The substance also gave an HD2 confidence (bait TLN1_PTB__Q9Y490_309_401, library HD2 P8) of 4. In addition, the HD2_nc confidence (bait TLN1_PTB__Q9Y490_309_401, library HD2 P8 nucleocytoplasmic) was determined as 3. In addition, the HD2_nc count proportions (bait TLN1_PTB__Q9Y490_309_401, library HD2 P8 nucleocytoplasmic, mean normalised NGS counts) came out at 0.1307. The substance further displayed an HD2_nc mean counts (bait TLN1_PTB__Q9Y490_309_401, library HD2 P8 nucleocytoplasmic, mean raw NGS counts, all selections) of 5802.8. The same substance came in with an HD count proportions (bait TLN1_PTB__Q9Y490_309_401, library HD, mean normalised NGS counts) of 0.08207. In addition, where the note is “bait TLN1_PTB__Q9Y490_309_401, library HD, mean raw NGS counts, all selections”, the HD mean counts is listed as 2181.
As to FPTGSSSTNPFL-------, under setting [1], the motif_found entry was “FALSE”.
Take “FRHRLWAVLTVQAYARGMIARRLHQRLRAEY [MYO7A 840-856]”: for the setting “HD2 library, bait CALM1_EF-hand__P0DP23_2_149, benchmark motif instance, in_library_check FALSE, in_library_coverage 0”, the motif_found result is “FALSE”.
In the case of FRPENEEDILVVTTQGEVE, the motif_found entry is, setting by setting: under setting [2], “FALSE”; under setting [3], “FALSE”.
For the substance GAQASVGSRSEGEGEAASADDG, the motif_found entry under setting [4] was “FALSE”.
Take GCMKTCPLIDLEVDNGPAQ [GGA2]: the motif_found result (bait CLTC_Clathrin-propeller__Q00610_1_364, library HD2, benchmarking set of validated motif instances, TRUE = motif instance recovered in the ProP-PD selection) was “FALSE”.
For GDSQGRKRRQTSMTDFYHSKRRLIFSKRKP-, the motif_found result under setting [5] is on record as “FALSE”.
Under setting [6], GEAWGHSSRTSPLDNV had an HD2_nucleus confidence of 4.
Regarding GEYVRVKLQLNPAAREFKPDVKSKPVS, the motif_found entry under setting [7] is recorded as “FALSE”.
With GGFDTEPDEFSDFDRLRTALPTSG [EPN1], the motif_found entry (bait AP2B1_adaptin__P63010_700_937, library HD2, benchmarking set of validated motif instances, TRUE = motif instance recovered in the ProP-PD selection) is “FALSE”.
Take GGMNWADLLPPPPAHP: the best_confidence (library HD2, bait VASP_EVH1__P50552_1_114, confidence level of best matching selected peptide (4 High, 2-3 Medium, 1 Low)) is listed as 3. The best_specificity (library HD2, bait VASP_EVH1__P50552_1_114, specificity score of best matching selected peptide) came to 0.99. Also, the motif_found result (library HD2, bait VASP_EVH1__P50552_1_114, validated benchmark motif instance, in_library_check TRUE, TRUE/FALSE = instance recovered in ProP-PD selection) is “TRUE”.
GHPESPPRKRLKSKGSDKDF: under setting [5], the motif_found result is listed as “FALSE”.
For GHSPPPAYTPMSGNQF, the best_confidence (library HD2, bait YAP1_WW_1_P46937_169_207, confidence level of best matching selected peptide (4 High, 2-3 Medium, 1 Low)) was 3. In addition, for the setting “library HD2, bait YAP1_WW_1_P46937_169_207, specificity score of best matching selected peptide”, the best_specificity was 1. Under setting [8], the motif_found result is given as “TRUE”.
GHSSRTSPLDNVGREL: the HD2_nucleus confidence under setting [6] is recorded as 4.
For the substance GLAFGAFTNPFTAPAAQSP, the motif_found result under setting [1] is “FALSE”.
Consider GMEHRGPPPEYPFKGMPP, for which the motif_found result is listed as “FALSE” (bait NEDD4_WW_4_P46934_890_928, HD2 library, whether the validated benchmark motif instance was recovered in the ProP-PD selection (TRUE/FALSE)) and “FALSE” under setting [8].
In the case of GNVIRWHNQETGEQIAIKQC, under “library HD2, bait Keap1_KELCH__Q14145_321_609, whether the validated benchmark motif instance was recovered in the ProP-PD selection (TRUE/FALSE)”, the motif_found entry was “FALSE”.
GPLRPVLEYIDLVSSDDEEPSTSYTD: the motif_found entry under setting [9] is reported as “FALSE”.
GPPSLNYIPPVLQLSG gave a best_specificity (bait CEP55_EABR__Q53EZ4_160_217, library HD2, best matching peptide) of 1. The same substance returned a best_confidence (bait CEP55_EABR__Q53EZ4_160_217, library HD2, confidence level of best matching peptide (4 = High, 2 or 3 = Medium, 1 = Low)) of 2.
For the substance GPTPTEPPPPYSFRPE, under “bait NEDD4_WW_4_P46934_890_928, HD2 P8 cytoplasm sublibrary, confidence level (4 = High, 2-3 = Medium, 1 = Low)”, the HD2_cytoplasm confidence is 4.
For the substance GQSLKVMPCLAPIAAKVGS, for the setting “library HD2, bait ZMYND11_coiled-coil-MYND__Q15326_480_602, validated benchmark motif instance, in_library_check TRUE, TRUE/FALSE = instance recovered in ProP-PD selection”, the motif_found result was “FALSE”.
Turning to GRAQAEQWAAEFIQQQGTS, the motif_found entry (bait PEX14_Pex14__O75381_16_84, HD2 library, whether the validated benchmark motif instance was recovered in the ProP-PD selection (TRUE/FALSE)) is “FALSE”.
As to GRDSPPSWRPQPDGEASQTEDV, the motif_found result under setting [4] is listed as “FALSE”.
In the case of GSSGNTHDDFVMIDFKPAFS, the motif_found result under setting [3] is “FALSE”.
Take GTNPTLVSVPNPVFGSDTFCEP: where the note is “HD2 library, bait TLN1_PTB__Q9Y490_309_401, known motif instance of the benchmarking set found (TRUE) or not found (FALSE) among selected peptides”, the motif_found result is “FALSE”.
Regarding “GYRQSPDGACSV,YRQSPDGACS,LRNSATGYRQSPDGACSVPSAR,YRQSPDGACSV [LNPEP 95-102]”, the motif_found entry (HD2 library, bait TNKS_TANK-peptide-bind__O95271_174_649, benchmark motif instance, in_library_check FALSE, in_library_coverage 0) is reported as “FALSE”.
With HDDFVMIDFKPAFSKD, the motif_found result under setting [2] is on record as “TRUE”. The best_confidence (bait MAP1LC3A_ATG8 (Q9H492 2-121), HD2 library, confidence level (1-4) of best matching peptide) was determined as 3. Further, the best_specificity (bait MAP1LC3A_ATG8 (Q9H492 2-121), HD2 library, specificity score of best matching peptide) is given as 1.
For the substance HLNNDSSTTIIIDSSDETTESPTVGTAQ, the motif_found result under setting [9] is on record as “FALSE”.
For the substance HPAPSWVAFAHTGAWG, the HD2 confidence (bait AP2B1_adaptin__P63010_700_937, HD2 P8 selection, non primary paralogue peptide match, confidence level -4 to 4: 4 = High, 3 or 2 = Medium, 1 = Low, 0 = Filtered/Noise) was 3.
Take “HTPRLPTLPKRVP,RRAFWHTPRLPTLPKRVPRAGEAR [CCDC8]”: the motif_found result (bait ANKRA2_Ank__Q9H9E1_142_313, library HD2, benchmarking set of validated motif instances, TRUE = motif instance recovered in the ProP-PD selection) is “FALSE”.
For the setting “library HD2, bait EIF4E_eIF4E__P06730_1_217, best matching peptide”, IIYDRKFLMECRNSPV came in with a best_specificity of 1. In addition, the best_confidence (library HD2, bait EIF4E_eIF4E__P06730_1_217, confidence level of best matching peptide (4 High, 2-3 Medium, 1 Low)) was 2. Moreover, under “library HD2, bait EIF4E_eIF4E__P06730_1_217, whether the validated benchmark motif instance was recovered in the ProP-PD selection (TRUE/FALSE)”, the motif_found result was “TRUE”.
Regarding ILSKSNLNPDAKEFIP, the best_confidence (bait PABP-B_PABP__P11940_544_623, HD2 library, confidence level (1-4) of best matching selected peptide) was determined as 2. The same substance displayed a best_specificity (bait PABP-B_PABP__P11940_544_623, HD2 library, specificity score of best matching selected peptide) of 1. Also, under setting [7], the motif_found entry is “TRUE”.
For IPDTPSPTVSVITISSDTDE, the motif_found entry under setting [9] is given as “FALSE”.
For the setting “HD2 library, bait TSG101_UEV__Q99816_1_145, best matching selected peptide”, IPSAPLYEEITYSGIS came in with a best_specificity of 1. For the setting “HD2 library, bait TSG101_UEV__Q99816_1_145, confidence level of best matching selected peptide”, this substance came in with a best_confidence of 3. For the same substance, the motif_found entry (HD2 library, bait TSG101_UEV__Q99816_1_145, known motif instance of the benchmarking set found (TRUE) or not found (FALSE) among selected peptides) was “TRUE”.
As for IQPDSPAPNPFSEEDEHPQ, under setting [1], the motif_found result is listed as “FALSE”.
Turning to IREHVTGCARSEGFYTIDKKD, the motif_found result (library HD2, bait WDR5_WD_1234567_P61964_21_334, validated benchmark motif instance, in_library_check TRUE, TRUE/FALSE = instance recovered in ProP-PD selection) is “FALSE”.
For the substance IYKSAVTTVVNPKYEGK----- [ITGB1 789-796], the motif_found entry (HD2 library, bait TLN1_PTB__Q9Y490_309_401, benchmark motif instance, in_library_check FALSE, in_library_coverage 0) is recorded as “FALSE”.
As to KATVEKPSNPFSGDLQKTF, under setting [1], the motif_found entry is recorded as “FALSE”.
On to “KDKEEVQRKRQKLMPNFSDS,IKDKEEVQRKRQKLMPNFSD [NFKB1 361-365]”, for which the motif_found entry (HD2 library, bait KPNA4_Arm__O00629_68_487, benchmark motif instance, in_library_check FALSE, in_library_coverage 0) is recorded as “FALSE”.
As to KDLATVNSNPFDDPDAAEL, the motif_found result under setting [1] is listed as “FALSE”.
For KEPGGSRAHSSHLKSKKGQ, the motif_found result (library HD2, bait USP7_MATH-TRAF__Q93009_53_206, validated benchmark motif instance, in_library_check TRUE, TRUE/FALSE = instance recovered in ProP-PD selection) is “FALSE”.
In the case of KILRLSGKP, the motif_found entry (bait MAD2L1_HORMA (Q13257 1-205), HD2 library, benchmark motif instance recovered in the ProP-PD selection (TRUE/FALSE)) was “FALSE”.
On to KISPPTPKPRPPRPLPVAPGS, for which, for the setting “library HD2, bait YES1_SH3__P07947_90_152, validated benchmark motif instance, in_library_check TRUE, TRUE/FALSE = instance recovered in ProP-PD selection”, the motif_found entry was “FALSE”.
KKAFVHMPTLPNLDFHKTGDGL: the motif_found result (library HD2, bait ANKRA2_Ank__Q9H9E1_142_313, motif instance NOT in library (in_library_check FALSE, in_library_coverage 0)) is “FALSE”.
Take KKKATFRAITSTLASSFKRR [GRIN1]: under setting [10], the motif_found result is on record as “FALSE”.
KKRFSFKKSFKLSGFSFK [MARCKS]: under setting [10], the motif_found entry is “FALSE”.
